IC50 data for 12 molecules are collected here from US20100099670A1, “Benzoquinazoline derivatives” (priority 2007, published 2010).

Molecules are shown by their SMILES.

A word on the IC50: it is the concentration needed to halve the response being measured.

This experiment addresses T1, human PcaR (Homo sapiens, UniProt P41180).
T1 construct: expressed in transfected cells; host or cells: CCL39 fibroblasts (hamster lung fibroblast line), stably transfected
T1 sequence (P41180 20-1078): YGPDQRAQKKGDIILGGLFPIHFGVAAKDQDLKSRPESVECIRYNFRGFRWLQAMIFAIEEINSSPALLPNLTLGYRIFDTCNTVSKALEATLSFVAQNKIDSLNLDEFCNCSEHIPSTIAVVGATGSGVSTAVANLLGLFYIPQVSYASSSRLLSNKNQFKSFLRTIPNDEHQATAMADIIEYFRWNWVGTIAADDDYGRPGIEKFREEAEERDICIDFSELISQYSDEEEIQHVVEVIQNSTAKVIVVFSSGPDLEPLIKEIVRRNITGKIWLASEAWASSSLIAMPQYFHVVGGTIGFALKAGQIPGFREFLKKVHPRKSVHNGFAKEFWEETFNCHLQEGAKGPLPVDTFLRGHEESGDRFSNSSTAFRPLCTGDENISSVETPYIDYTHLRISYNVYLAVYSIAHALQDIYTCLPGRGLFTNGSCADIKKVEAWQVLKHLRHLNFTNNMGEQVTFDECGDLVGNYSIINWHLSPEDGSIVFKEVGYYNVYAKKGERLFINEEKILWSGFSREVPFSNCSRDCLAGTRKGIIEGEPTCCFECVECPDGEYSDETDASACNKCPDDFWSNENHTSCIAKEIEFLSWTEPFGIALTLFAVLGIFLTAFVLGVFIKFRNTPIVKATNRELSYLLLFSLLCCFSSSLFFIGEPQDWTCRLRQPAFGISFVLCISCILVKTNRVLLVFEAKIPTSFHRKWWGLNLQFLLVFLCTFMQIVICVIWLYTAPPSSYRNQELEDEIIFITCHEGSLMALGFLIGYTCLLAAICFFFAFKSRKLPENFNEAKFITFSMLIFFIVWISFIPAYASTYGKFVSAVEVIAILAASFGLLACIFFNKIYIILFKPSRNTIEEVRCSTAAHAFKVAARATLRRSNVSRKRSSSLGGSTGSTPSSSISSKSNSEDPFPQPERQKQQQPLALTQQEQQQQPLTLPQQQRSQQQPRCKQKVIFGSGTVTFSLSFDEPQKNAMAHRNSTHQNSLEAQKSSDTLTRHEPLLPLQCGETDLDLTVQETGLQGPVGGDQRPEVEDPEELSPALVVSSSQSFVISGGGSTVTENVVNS
Put plainly: Inhibition of intracellular calcium transients stimulated by extracellular calcium (assay for intracellular free calcium). Type of experiment: cell-based. To be noted: CCL39 fibroblasts stably transfected with human PcaR; Fluo-3 AM; stimulated with calcium 2.5 mM final; read-out: IC50 (nm) (range in which compound fall). The procedure: Inhibition of Intracellular Calcium Transients Stimulated by Extracellular Calcium
In the test system, which is described in detail below, the following ranges of IC50 values are found:
Assay for Intracellular Free Calcium:
A method to determine antagonism at the PcaR consists in measuring the inhibition of intracellular calcium transients stimulated by extracellular calcium.
CCL39 fibroblasts stably transfected with human PcaR are seeded at 40,000 cells/well into 96-well Viewplates and incubated for 24 hours. Medium is then removed and replaced with fresh medium containing 2 μM Fluo-3 AM (Molecular Probes, Leiden, The Netherlands), In routine experiments, cells are incubated at 37° C., 5% CO2 for 1 h. Afterwards, plates are washed twice with mHBS and wells are refilled with 100 μl mHBS containing the test compounds. Incubation is continued at room temperature for 15 minutes. To record changes of intracellular free calcium, plates are transferred to fluorescence-imaging plate reader (Molecular Devices, Sunnyvale, Calif., USA). A baseline consisting in 5 measurements of 0.4 seconds each (laser excitation 488 nm) is recorded. Cells are then stimulated with calcium (2.5 mM final), and fluorescence changes recorded over a period of 3 minutes.
(A change in cytosolic calcium serves as a functional read-out for many receptors and channels.)

Take `C#CCOc1ccc2nc(C(=O)c3ccc4c(c3)OCCO4)nc(-c3ccc(C(C)C)cc3)c2c1` [Example 1, (2,3-Dihydro-benzo[1,4]dioxin-6-yl)-[4-(4-isopropyl-phenyl)-6-propargyloxy-quinazolin-2-yl]-methanone]: the IC50 lay within 0.5 to 1 nM.
As for `C#CCOc1ccc2nc(C(=O)c3ccc4c(c3)OCO4)nc(-c3ccc(C(C)C)cc3)c2c1` [Example 2, Benzo[1,3]dioxol-5-yl-[4-(4-isopropyl-phenyl)-6-propargyloxy-quinazolin-2-yl]-methanone], the figure is 0.2 to 0.5 nM; as for `C#CCOc1ccc2nc(C(=O)c3ccc4c(c3)CCO4)nc(-c3ccc(C(C)C)cc3)c2c1` [Example 3, (2,3-Dihydro-benzofuran-5-yl)-[4-(4-isopropyl-phenyl)-6-propargyloxy-quinazolin-2-yl]-methanone], 0.2 to 0.5 nM.
As for `C#CCOc1ccc2nc(C(=O)c3ccc4c(c3)OC=CO4)nc(-c3ccc(C(C)C)cc3)c2c1` [Example 4, Benzo[1,4]dioxin-6-yl-[4-(4-isopropyl-phenyl)-6-propargyloxy-quinazolin-2-yl]-methanone], the figure is 0.5 to 1 nM; as for `C#CCOc1ccc2nc(C(=O)c3ccc4c(c3)CCC4)nc(-c3ccc(C(C)C)cc3)c2c1` [Example 5, Indan-5-yl-[4-(4-isopropyl-phenyl)-6-propargyloxy-quinazolin-2-yl]-methanone], 0.5 to 1 nM.
Next, `C#CCOc1ccc2nc(C(=O)c3ccc4c(c3)OCC4)nc(-c3ccc(C(C)C)cc3)c2c1` [Example 6, (2,3-Dihydro-benzofuran-6-yl)-[4-(4-isopropyl-phenyl)-6-propargyloxy-quinazolin-2-yl]-methanone]: 0.2 to 0.5 nM; `C#CCOc1ccc2nc(C(=O)c3ccc4c(c3)OCCN4C)nc(-c3ccc(C(C)C)cc3)c2c1` [Example 7, [4-(4-Isopropyl-phenyl)-6-propargyloxy-quinazolin-2-yl]-(4-methyl-3,4-dihydro-2H-benzo[1,4]oxazin-7-yl)-methanone]: 0.2 to 0.5 nM; `C#CCOc1ccc2nc(C(=O)c3ccc4occc4c3)nc(-c3ccc(C(C)C)cc3)c2c1` [Example 8, Benzofuran-5-yl-[4-(4-isopropyl-phenyl)-6-propargyloxy-quinazolin-2-yl]-methanone]: 0.2 to 0.5 nM.
With `C#CCOc1ccc2nc(C(=O)c3ccc4c(c3)C(C)(C)CCC4(C)C)nc(-c3ccc(C(C)C)cc3)c2c1` [Example 9, [4-(4-Isopropyl-phenyl)-6-propargyloxy-quinazolin-2-yl]-(5,5,8,8-tetramethyl-5,6,7,8-tetrahydro-naphthalen-2-yl)-methanone], the IC50 fell in the range of 1 to 5 nM.
As for `C#CCOc1ccc2nc(C(=O)c3ccc4c(c3)N(C)CCO4)nc(-c3ccc(C(C)C)cc3)c2c1` [Example 10, [4-(4-Isopropyl-phenyl)-6-propargyloxy-quinazolin-2-yl]-(4-methyl-3,4-dihydro-2H-benzo[1,4]oxazin-6-yl)-methanone], the figure is 1 to 5 nM; as for `C#CCOc1ccc2nc(C(=O)c3nc4ccc(OC)cc4s3)nc(-c3ccc(C(C)C)cc3)c2c1` [Example 11, [4-(4-Isopropyl-phenyl)-6-propargyloxy-quinazolin-2-yl]-(6-methoxy-benzo-thiazol-2-yl)-methanone], 5 to 10 nM; as for `C#CCOc1ccc2nc(C(=O)c3ccc4c(c3)-c3ccccc3C4=O)nc(-c3ccc(C(C)C)cc3)c2c1` [Example 12, 3-[4-(4-Isopropyl-phenyl)-6-propargyloxy-quinazolin-2-carbonyl]-fluoren-9-one], 0.2 to 0.5 nM.
